Reference: patent US20050256081A1, “Tetracycline derivatives for the treatment of ocular pathologies” (priority 2004, published 2005)
“And” between values parts separate entries of the source, which are not always exact repeats. Identical values can stand only once.

What was measured:
[1] = system: corneal neovascularization; assay: Inhibition of corneal neovascularization after silver nitrate/potassium nitrate corneal burn, graded by slit lamp photography and histology (Example 1); assay type: in vivo, rat; details: agent alone, topically applied twice a day; doxycycline about 1 to about 20 mg/ml, low molecular weight heparin about 10 mg/ml, triamcinolone about 4 mg/ml; compared to controls
Method: Artificial corneal burns were induced in rat eyes to determine the effects of doxycycline, steroids, and low molecular weight heparin, alone and in combinations, on corneal neovascularization.
The presence of new vessels (neovascularization) and the extent of new vessel formation was assessed by split lamp photography and histology. Inhibition of vessel proliferation was evaluated by measuring vessel progression from the outer cornea (corneal limbus) into the cornea. A numerical rating system was used to quantitate the degree of inhibition (+, ++, and +++ inhibition), with “+ inhibition” indicating inhibition one-third of the distance from the limbus of the cornea to the center; “++ inhibition” indicating inhibition two-thirds of the distance from the limbus to the center; “+++ inhibition” indicating complete inhibition of vessels between the limbus and the center; and the designation “± inhibition” indicating an intermediate degree of inhibition (e.g, less than +, ++, or +++) .

[2] = system: corneal neovascularization; assay: Silver nitrate cauterization corneal neovascularization model, two drug combinations (Example 3); assay type: in vivo, Long Evans rats; details: for effect on corneal neovascularization, individual agents: flurbiprofen 0.03% w/v, LMWH 10 mg/ml, administered as individual agents, data not shown
Description: Artificial corneal burns were induced in thirty-two eyes belonging to thirty-two Long Evans rats to determine the effects of doxycycline or another tetracycline derivative and low molecular weight heparin, doxycycline or another tetracycline derivative, and flurbiprofen, or flurbiprofen and low molecular weight heparin, on corneal neovascularization. All the eyes were examined to exclude any eyes with corneal scars and/or neovascularization prior to induction.
(§1) Neovascularization was induced in all eyes using silver nitrate cauterization. The animals were first anesthetized by intraperitoneal injection of a mixture of ketamine hydrochloride (25 mg/kg) with xylazine hydrochloride (5 mg/kg). The cornea was then anesthetized by a drop of 0.5% proparacaine and allowed to dry.
Group 1 (number of animals, n=8) received a 1:1 combination of 0.03% flurbiprofen sodium ophthalmic solution (Allergan, Irvine CA) and 10 mg/ml low molecular weight heparin (Enoxaparin, Aventis Pharmaceuticals Inc., Bridgewater N.J.); an actual concentration of 0.015% flurbiprofen with 5 mg/ml low molecular weight heparin. […] Group 3 (n=8) received a 1:1 combination of 20 mg/ml doxycycline and 10 mg/ml low molecular weight heparin; an actual concentration of 10 mg/ml doxycycline with 5 mg/ml low molecular weight heparin. Group 4 (n=8) received balanced salt solution (control). The drops were applied topically immediately after cauterization; treatments were administered two times per day for seven days.
(§2) The presence of new vessels (neovascularization) and the extent of new vessel formation was assessed by slit lamp photography and histology. Inhibition of vessel proliferation was evaluated by measuring vessel progression from the outer cornea (corneal limbus) into the comea. As previously described, it will be appreciated that any reduction of new vessel proliferation and/or regression of existing vessels is therapeutic, and that complete inhibition and/or regression is not required, and also that reduction includes regression of existing vessels.
The extent of corneal neovascularization was determined by slit lamp microscopy with photography (SL-7E, Topcon, Tokyo Japan) on day seven after cauterization. The animals were euthanized in a carbon dioxide chamber under deep general anesthesia. […]
Corneal neovascularization was assessed by scanning (Cano scan 9900F, Canon, Tokyo Japan) the slit lamp photographs into high resolution digital images. […] The percentage area of the cornea covered by the corneal scar in each eye was also determined. […]
Statistical analysis was performed using Statistical Analysis System (SPSS 11.5) software. The difference between the groups was determined using Mann-Whitney U Analysis test; a p value less than 0.05 was considered significant.

[3] = system: corneal neovascularization; assay: Silver nitrate cauterization corneal neovascularization model, single agents (Example 5); assay type: in vivo, Long Evans pigmented rats; details: for NV area compared to the control group (statistical significance): GLM with Tukey's studentized range test, significance at p≦0.05; for Percent Area Of Neovascularization Mean ± SD: topical two times daily for 7 days, 7th day, ascomycin 50 μg/ml, flurbiprofen 0.03%, doxycycline 20 mg/ml, LMWH 10 mg/ml, triamcinolone acetonide 4 mg/ml; for neovascularization on digitally enhanced slit lamp photograph: seven days after induction of corneal burn, FIG. 11
[4] = system: corneal neovascularization; assay: Silver nitrate cauterization corneal neovascularization model, doxycycline concentrations and pH (Example 4); assay type: in vivo, Long Evans pigmented rats; details: for Percent area of neovascularization (Mean ± SD): topical two times per day for seven days, n=6, monohydrate
Description: Thirty-six eyes belonging to thirty-six male Long Evans pigmented rats (200 g to 250 g) were divided into […] groups. Treated eyes were topically administered doxycycline at the following concentrations and having the indicated pH values: 0.05%^w/v (pH 3.3), 0.1%^w/v (pH 3.1), 1%^w/v (pH 2.3), 2%^w/v (pH 2.1), 2%^w/v (adjusted to pH of 7.4). One eye of each animal served as a treated eye and the other eye served as a non-treated control eye. Artificial corneal bums were induced. All the eyes were examined to exclude any eyes with corneal scars and/or neovascularization prior to induction.
as §1
as §2, with “cornea.” for “comea.”, “indudes” for “includes”
Neovascularization was evaluated by an examiner who was blinded as to the treatment groups to minimize the observer bias.
The animals were euthanized in a carbon dioxide chamber under deep general anesthesia. The eyes were enucleated and fixed in 10% formaldehyde.
Corneal neovascularization was assessed by scanning (Cano scan 9900F, Canon, Tokyo Japan) the slit lamp photographs into high resolution digital images. […] The percentage area of the cornea covered by the corneal scar in each eye was also determined. A drawing of corneal blood vessels was made to compare with digital photos and ensure that no vascular area was omitted during calculation of percent area.
Statistical analyses were performed using each animal as an experimental unit with Statistical Analysis System (SPSS 11.5) software. Kruscal-Vallis and Mann-Whitney U Analysis was conducted and treatment means were separated at p<0.05 with least significant difference (LSD) test. A p value <0.05 was considered significant.
For histopathologic evaluation, sedated animals were euthanized with inhaled CO2 and enucleation was performed immediately. […] The eyes were prepared for histological examination using 10% formaldehyde. […] The corneas were then soaked in xylene and paraffin, and later embedded in paraffin and cut at […] for staining with hematoxylin and eosin (H&E) for light microscopy.
Light microscopic examination was performed on every microscopic section.

In the case of low molecular weight heparin, the inhibition of neovascularization [1] is reported as “+”, the “effect on corneal neovascularization, individual agents” value [2] is reported as “did not significantly decrease corneal neovascularization” and the “NV area compared to the control group (statistical significance)” value [3] is reported as “no statistically significant differences”. The “Percent Area Of Neovascularization Mean ± SD” value [3] was 66.7%±9.9% and 66.7 ± 9.9%.

In the case of `CC1c2cccc(O)c2C(=O)C2=C(O)C3(O)C(=O)C(C(N)=O)=C(O)C(N(C)C)C3C(O)C21.O` (centres unmarked) [doxycycline, 4-(dimethylamino)-1,4,4a,5,5a,6,11,12a-octahydro3,5,10,12,12a-pentahydroxy-6-methyl-1,11-dioxo-2-naphthacenecarboxamide monohydrate], the inhibition of neovascularization [1] is reported as “+”, the “histology (H&E), new vessels and inflammatory cells” value (“histology (H&E)” for short) ([4]; 0.05% doxycycline, FIG. 8A) is reported as “new vessels and inflammatory cells through the entire corneal stroma” and the “Percent area of neovascularization (Mean ± SD)” value (from here on “Percent area … (Mean ± SD)”) ([4]; 0.05% w/v doxycycline, pH 3.3, listed as Doxycycline) is reported as 69.83 ± 17.98%. For the same compound, the “Percent area … (Mean ± SD)” value ([4]; 0.05% w/v doxycycline, pH 3.3) was 69.8±17.9%, the “histology (H&E)” value ([4]; 0.1% doxycycline, FIG. 8B) was “new vessels and inflammatory cells through the entire corneal stroma” and the “Percent area … (Mean ± SD)” value ([4]; 0.1% w/v doxycycline, pH 3.1, listed as Doxycycline) was 64.48 ± 14.04%. The “Percent area … (Mean ± SD)” value ([4]; 0.1% w/v doxycycline, pH 3.1) was 64.5±14.0%, the “histology (H&E)” value ([4]; 1% doxycycline, FIG. 8C) was “inflammatory cells and there was neovascularization in the stroma far from the corneal burn” and the “Percent area … (Mean ± SD)” value ([4]; 1% w/v doxycycline, pH 2.3, listed as Doxycycline) was 56.35 ± 20.84%. For the same compound, the “Percent area … (Mean ± SD)” value ([4]; 1% w/v doxycycline, pH 2.3) was 56.3±20.8%, the “histology (H&E)” value ([4]; 2% doxycycline adjusted to a substantially neutral pH, FIG. 8E) was “fewer inflammatory cells and less neovascularization in the stroma than eyes administered 1% doxycycline” and the “histology (H&E)” value ([4]; 2% doxycycline not pH adjusted, FIG. 8D) was “fewer inflammatory cells and less neovascularization in the stroma than eyes administered 1% doxycycline”. For the same compound, the “mean percentage area of neovascularization, 2% doxycycline pH neutralized compared with 2% doxycycline not adjusted for pH” value ([4]; 2% doxycycline, pH neutralized) was “significantly less”, the “Percent area … (Mean ± SD)” value ([4]; 2% w/v doxycycline adjusted to pH 7.4, listed as Doxycycline) was 36.2 ± 4.3% and the “Percent area … (Mean ± SD)” value ([4]; 2% w/v doxycycline adjusted to pH 7.4) was 36.2±4.3%. For the same compound, the “Percent area … (Mean ± SD)” value ([4]; 2% w/v doxycycline, pH 2.1 (not adjusted for pH), listed as Doxycycline) was 54.78 ± 5.95%, the “Percent area … (Mean ± SD)” value ([4]; 2% w/v doxycycline, pH 2.1 (not adjusted for pH)) was 54.7±5.9% and the “effect on corneal neovascularization, individual agent” value ([2]; doxycycline administered at 10 mg/ml) was “not when administered at 10 mg/ml”. For the same compound, the “effect on corneal neovascularization, individual agent” value ([2]; doxycycline administered at 20 mg/ml) was “did significantly inhibit”, the “NV area compared to the control group (statistical significance)” value [3] was “significant reduction” and the “neovascularization on digitally enhanced slit lamp photograph” value [3] was “neovascularization is less prominent than in control group”. For the same compound, the “Percent Area Of Neovascularization Mean ± SD” value ([3]; listed as Doxycycline, monohydrate) was 35.5 ± 29.1% and the “Percent Area Of Neovascularization Mean ± SD” value ([3]; monohydrate) was 35.5%±29.1%.

With `CC[C@@H]1/C=C(\C)C[C@H](C)C[C@H](OC)[C@H]2O[C@@](O)(C(=O)C(=O)N3CCCC[C@H]3C(=O)O[C@H](/C(C)=C/[C@@H]3CC[C@@H](O)[C@H](OC)C3)[C@H](C)[C@@H](O)CC1=O)[C@H](C)C[C@@H]2OC` [ascomycin] the “NV area compared to the control group (statistical significance)” value [3] was “no statistically significant differences”, the “Percent Area Of Neovascularization Mean ± SD” value [3] was 56.0%±22.4% and the “Percent Area Of Neovascularization Mean ± SD” value ([3]; listed as Ascomycin) was 56.0 ± 22.4%.

In the case of `CC(C(=O)[O-])c1ccc(-c2ccccc2)c(F)c1.O.O.[Na+]` (racemic) [flurbiprofen, sodium (±)-2-(2-fluoro-4-biphenylyl)-propionate dihydrate], the “effect on corneal neovascularization, individual agents” value [2] is reported as “did not significantly decrease corneal neovascularization”, the “NV area compared to the control group (statistical significance)” value [3] is reported as “no statistically significant differences” and the “neovascularization on digitally enhanced slit lamp photograph” value [3] is reported as “neovascularization is quite prominent”. For the same compound, the “Percent Area Of Neovascularization Mean ± SD” value ([3]; dihydrate) was 50.5%±18.7% and the “Percent Area Of Neovascularization Mean ± SD” value ([3]; listed as Flurbiprofen, dihydrate) was 50.6 ± 18.7%.
